Laboratory results from patent US20200179310A1, “COMPOSITIONS COMPRISING SALBUTAMOL SULPHATE” (MEXICHEM AMANCO HOLDING S.A. DE C.V., priority 2013, published 2020).

Test: Solubility of surfactants in liquid propellant (non-volatile residue of saturated supernatant)
Type: physicochemical
Conditions: for NVR result (quantity of dissolved surfactant in the propellant): equilibrated at 20° C., excess surfactant in 200 g liquid propellant
Protocol: The solubility of various surfactants in R-134a and R-152a was investigated. The solubility was investigated by adding an excess of the surfactant (around 2 grams) to 200 g of the liquid propellant in a pressurised vessel. The vessel was equilibrated at 20° C. for a period of a few hours before decanting a weighed sample of the saturated supernatant liquid propellant through a filter into a clean vessel. The propellant was slowly removed by evaporation and the residue taken up in a small quantity of dichloromethane. The dichloromethane containing the dissolved residue was transferred to a weighed platinum crucible and heated (up to around 100° C.) to remove the solvent. The weighed, solvent-free residue represented the quantity of dissolved surfactant in the propellant.

Which “NVR result (quantity of dissolved surfactant in the propellant)” value (Refrigerant 134a (R-134a)) does the source give for Span 80 here?
Its value is 0.07%.

What about the Observation (Refrigerant 152a (R-152a), 20° C.) of the same substance?
Its Observation is “Sunk to the bottom”.

And the “NVR result (quantity of dissolved surfactant in the propellant)” value (Refrigerant 152a (R-152a))?
Its value is 0.22%.

And the “Solubility in R-152a in comparison with R134a” value (comparison of Table 1 values)?
The value was “significant increases in solubility”.
